# Reference: patent publication US6914045B2, “Glycopeptide antibiotics” (Wyeth Holdings Corporation, priority 2001, dated 2005)
# What was measured:
# [1] = test system: Escherichia coli; experiment: in vitro antibacterial evaluation, MIC by broth dilution; assay type: cell-based; details: 18 hours at 35° C.
# Procedure, shortened: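 MIC is the lowest antibiotic concentration (tested 64-0.06 μg/mL) preventing growth of a 5×10^5 CFU/mL inoculum. Determined by broth dilution in Mueller-Hinton II medium following NCCLS standard M7-A2.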
# [2] = clinical pathology (serum clinical chemistry) in mice; assay type: in vivo; details: CD-1 mice, 20 mg/kg intravenously daily for 9 days, sera day 10
# Protocol: 20-day-old CD-1 mice were divided into a vehicle control group (5 mice) and a treatment group (5 mice). Samples of glycopeptide antibiotics were administered at 20 mg/kg intravenously daily for 9 days.
# [3] = anatomic pathology (histopathology of heart and kidney) in mice; assay type: in vivo; details: CD-1 mice, 20 mg/kg intravenously daily for 9 days, necropsy day 10, microscopic histopathology
# Protocol: Samples of tissues from necropsied mice were formalin-fixed, paraffin-embedded, sectioned, stained with hematoxylin and eosin, and examined microscopically. Histopathologic findings were recorded. These findings were subjectively graded on a scale corresponding to slight, mild, moderate, marked and severe as compared to untreated controls.
# [4] = test system: Enterococcus sp.; experiment: in vitro antibacterial evaluation, MIC by broth dilution; assay type: cell-based; details: broth dilution, 18 hours at 35° C.
# Procedure, shortened: (§1)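 MIC, the lowest antibiotic concentration preventing growth, was read across 64-0.06 μg/mL with 5×10^5 CFU/mL inoculum. Method followed NCCLS M7-A2 broth dilution using Mueller-Hinton II; Gram-positive strains covered recent methicillin-, penicillin- and/or vancomycin-resistant clinical isolates.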
# [5] = test system: Staphylococcus sp.; experiment: as above; assay type: cell-based; details: broth dilution, 18 hours at 35° C.
# Procedure, shortened: as §1
# [6] = test system: Streptococcus sp.; experiment: as above; assay type: cell-based; details: broth dilution, 18 hours at 35° C.
# Procedure, shortened: as §1
smiles,measurement,setting,value
"CC(c1ccccc1)C1NC(=O)CNC(=O)C(CO)NC(=O)C(C(O)C2CN(CCCCCCCCCCC(=O)O)C(=N)N2C2OC(CO)C(O)C(O)C2O)NC(=O)C(C(O)C2CNC(=N)N2)NC(=O)C(Cc2ccc(OC3OC(CO)C(OC4OC(CO)C(O)C(O)C4O)C(O)C3O)cc2)NC1=O (stereo not drawn) [Example 72, Cyclo[glycyl-β-methylphenylalanyl-O-(4-O-hexopyranosylhexopyranosyl)tyrosyl-3-(2-iminoimidazolidin-4-yl)seryl-3-[1-(10-carboxydecyl)-3-hexopyranosyl-2-iminoimidazolidin-4-yl]serylseryl]]",MIC Escherichia coli (ATCC 25922),[1],>128 µg/mL
same,MIC Escherichia coli (GC 4559),[1],>128 µg/mL
same,MIC Escherichia coli (GC 4560),[1],32 µg/mL
same,"Clinical Chemistry (Day 10) % of Control, BUN",[2],+122%
same,"Anatomical Pathology (Day 10), Heart",[3],0
same,"Anatomical Pathology (Day 10), Kidney",[3],++
same,MIC Enterococcus avium (GC 4558),[4]; Enterococcus avium (GC 4558),64 µg/mL
same,MIC Enterococcus faecalis (ATCC 29212),[4]; Enterococcus faecalis (ATCC 29212),>128 µg/mL
same,MIC Enterococcus faecalis (GC 4552),[4]; Enterococcus faecalis (GC 4552),>128 µg/mL
same,MIC Enterococcus faecalis (GC 4553),[4]; Enterococcus faecalis (GC 4553),64 µg/mL
same,MIC Enterococcus faecalis (GC 4554),[4]; Enterococcus faecalis (GC 4554),>128 µg/mL
same,MIC Enterococcus faecalis (GC 6189),[4]; Enterococcus faecalis (GC 6189),>128 µg/mL
same,MIC Enterococcus faecium (GC 2243),[4]; Enterococcus faecium (GC 2243),>128 µg/mL
same,MIC Enterococcus faecium (GC 4556),[4]; Enterococcus faecium (GC 4556),>128 µg/mL
same,MIC Enterococcus faecium (GC 4557),[4]; Enterococcus faecium (GC 4557),128 µg/mL
same,MIC Enterococcus avium (GC 4558),[4],64 µg/mL
same,MIC Enterococcus faecalis (ATCC 29212),[4],>128 µg/mL
same,MIC Enterococcus faecalis (GC 2242),[4],>128 µg/mL
same,MIC Enterococcus faecalis (GC 2691),[4],>128 µg/mL
same,MIC Enterococcus faecalis (GC 3059),[4],>128 µg/mL
same,MIC Enterococcus faecalis (GC 4552),[4],>128 µg/mL
same,MIC Enterococcus faecalis (GC 4553),[4],64 µg/mL
same,MIC Enterococcus faecalis (GC 4554),[4],>128 µg/mL
same,MIC Enterococcus faecalis (GC 6189),[4],>128 µg/mL
same,MIC Enterococcus faecium (GC 2243),[4],>128 µg/mL
same,MIC Enterococcus faecium (GC 4556),[4],>128 µg/mL
same,MIC Enterococcus faecium (GC 4557),[4],128 µg/mL
same,MIC Enterococcus faecalis (GC 2242),[4]; strain GC 2242,>128 µg/mL
same,MIC Enterococcus faecalis (GC 2691),[4]; strain GC 2691,>128 µg/mL
same,MIC Enterococcus faecalis (GC 3059),[4]; strain GC 3059,>128 µg/mL
same,MIC Staphylococcus aureus (ATCC 29213),[5]; strain ATCC 29213,>128 µg/mL
same,MIC Staphylococcus aureus (GC 1131),[5]; strain GC 1131,>128 µg/mL
same,MIC Staphylococcus aureus (GC 3051),[5]; strain GC 3051,>128 µg/mL
same,MIC Staphylococcus aureus (GC 3053),[5]; strain GC 3053,>128 µg/mL
same,MIC Staphylococcus aureus (GC 4541),[5]; strain GC 4541,>128 µg/mL
same,MIC Staphylococcus aureus (GC 4542),[5]; strain GC 4542,>128 µg/mL
same,MIC Staphylococcus aureus-SMITH (GC 4543),[5]; strain GC 4543,>128 µg/mL
same,MIC Staphylococcus aureus (GC 4544),[5]; strain GC 4544,>128 µg/mL
same,MIC Staphylococcus aureus (GC 4545),[5]; strain GC 4545,>128 µg/mL
same,MIC Staphylococcus haemolyticus (GC 4546),[5]; strain GC 4546,>128 µg/mL
same,MIC Coagulase Negative Staphylococcus (GC 4547),[5]; strain GC 4547,>128 µg/mL
same,MIC Coagulase Negative Staphylococcus (GC 4548),[5]; strain GC 4548,>128 µg/mL
same,MIC Coagulase Negative Staphylococcus (GC 4549),[5]; strain GC 4549,>128 µg/mL
same,MIC Coagulase Negative Staphylococcus (GC 4551),[5]; strain GC 4551,>128 µg/mL
same,MIC Coagulase Negative Staphylococcus (GC 6257),[5]; strain GC 6257,>128 µg/mL
same,MIC Streptococcus agalactiae (GC 4564),[6],128 µg/mL
same,MIC Streptococcus pneumoniae (ATCC 6301),[6],64 µg/mL
same,MIC Streptococcus pneumoniae (GC 1894),[6],16 µg/mL
same,MIC Streptococcus pneumoniae (GC 4565),[6],64 µg/mL
same,MIC Streptococcus pyogenes (GC 4563),[6],64 µg/mL
same,MIC Streptococcus pneumoniae (ATCC 6301),[6]; strain ATCC 6301,64 µg/mL
same,MIC Streptococcus pneumoniae (GC 1894),[6]; strain GC 1894,16 µg/mL
same,MIC Streptococcus pyogenes (GC 4563),[6]; strain GC 4563,64 µg/mL
same,MIC Streptococcus agalactiae (GC 4564),[6]; strain GC 4564,128 µg/mL
same,MIC Streptococcus pneumoniae (GC 4565),[6]; strain GC 4565,64 µg/mL
